Assay results taken from patent US10457655B2, “Compounds and compositions for inhibition of FASN” (FORMA Therapeutics, Inc., priority 2013, dated 2019).
Like-named read-outs stand apart in the source and are kept apart here.

Molecular target: FASN enzyme (Homo sapiens, UniProt P49327)
Test: Enzymatic Assay for FASN Inhibitors
Type: biochemical
Method in brief: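 40 nM FASN preincubated with compound 60 min at 25° C in HEPES pH 7.3 buffer with 0.04% Triton X-100. Then 20 μM acetyl-CoA, 60 μM malonyl-CoA and 100 μM NADPH added for 90 min, quenched with CPM thiol probe; fluorescence 360/530 nm, IC50 by four-parameter fit.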

[1] = FASN enzymatic assay, Table 2-2
[2] = FASN enzymatic assay, Table 2-3

FASN enzyme, sequence (P49327 whole entry): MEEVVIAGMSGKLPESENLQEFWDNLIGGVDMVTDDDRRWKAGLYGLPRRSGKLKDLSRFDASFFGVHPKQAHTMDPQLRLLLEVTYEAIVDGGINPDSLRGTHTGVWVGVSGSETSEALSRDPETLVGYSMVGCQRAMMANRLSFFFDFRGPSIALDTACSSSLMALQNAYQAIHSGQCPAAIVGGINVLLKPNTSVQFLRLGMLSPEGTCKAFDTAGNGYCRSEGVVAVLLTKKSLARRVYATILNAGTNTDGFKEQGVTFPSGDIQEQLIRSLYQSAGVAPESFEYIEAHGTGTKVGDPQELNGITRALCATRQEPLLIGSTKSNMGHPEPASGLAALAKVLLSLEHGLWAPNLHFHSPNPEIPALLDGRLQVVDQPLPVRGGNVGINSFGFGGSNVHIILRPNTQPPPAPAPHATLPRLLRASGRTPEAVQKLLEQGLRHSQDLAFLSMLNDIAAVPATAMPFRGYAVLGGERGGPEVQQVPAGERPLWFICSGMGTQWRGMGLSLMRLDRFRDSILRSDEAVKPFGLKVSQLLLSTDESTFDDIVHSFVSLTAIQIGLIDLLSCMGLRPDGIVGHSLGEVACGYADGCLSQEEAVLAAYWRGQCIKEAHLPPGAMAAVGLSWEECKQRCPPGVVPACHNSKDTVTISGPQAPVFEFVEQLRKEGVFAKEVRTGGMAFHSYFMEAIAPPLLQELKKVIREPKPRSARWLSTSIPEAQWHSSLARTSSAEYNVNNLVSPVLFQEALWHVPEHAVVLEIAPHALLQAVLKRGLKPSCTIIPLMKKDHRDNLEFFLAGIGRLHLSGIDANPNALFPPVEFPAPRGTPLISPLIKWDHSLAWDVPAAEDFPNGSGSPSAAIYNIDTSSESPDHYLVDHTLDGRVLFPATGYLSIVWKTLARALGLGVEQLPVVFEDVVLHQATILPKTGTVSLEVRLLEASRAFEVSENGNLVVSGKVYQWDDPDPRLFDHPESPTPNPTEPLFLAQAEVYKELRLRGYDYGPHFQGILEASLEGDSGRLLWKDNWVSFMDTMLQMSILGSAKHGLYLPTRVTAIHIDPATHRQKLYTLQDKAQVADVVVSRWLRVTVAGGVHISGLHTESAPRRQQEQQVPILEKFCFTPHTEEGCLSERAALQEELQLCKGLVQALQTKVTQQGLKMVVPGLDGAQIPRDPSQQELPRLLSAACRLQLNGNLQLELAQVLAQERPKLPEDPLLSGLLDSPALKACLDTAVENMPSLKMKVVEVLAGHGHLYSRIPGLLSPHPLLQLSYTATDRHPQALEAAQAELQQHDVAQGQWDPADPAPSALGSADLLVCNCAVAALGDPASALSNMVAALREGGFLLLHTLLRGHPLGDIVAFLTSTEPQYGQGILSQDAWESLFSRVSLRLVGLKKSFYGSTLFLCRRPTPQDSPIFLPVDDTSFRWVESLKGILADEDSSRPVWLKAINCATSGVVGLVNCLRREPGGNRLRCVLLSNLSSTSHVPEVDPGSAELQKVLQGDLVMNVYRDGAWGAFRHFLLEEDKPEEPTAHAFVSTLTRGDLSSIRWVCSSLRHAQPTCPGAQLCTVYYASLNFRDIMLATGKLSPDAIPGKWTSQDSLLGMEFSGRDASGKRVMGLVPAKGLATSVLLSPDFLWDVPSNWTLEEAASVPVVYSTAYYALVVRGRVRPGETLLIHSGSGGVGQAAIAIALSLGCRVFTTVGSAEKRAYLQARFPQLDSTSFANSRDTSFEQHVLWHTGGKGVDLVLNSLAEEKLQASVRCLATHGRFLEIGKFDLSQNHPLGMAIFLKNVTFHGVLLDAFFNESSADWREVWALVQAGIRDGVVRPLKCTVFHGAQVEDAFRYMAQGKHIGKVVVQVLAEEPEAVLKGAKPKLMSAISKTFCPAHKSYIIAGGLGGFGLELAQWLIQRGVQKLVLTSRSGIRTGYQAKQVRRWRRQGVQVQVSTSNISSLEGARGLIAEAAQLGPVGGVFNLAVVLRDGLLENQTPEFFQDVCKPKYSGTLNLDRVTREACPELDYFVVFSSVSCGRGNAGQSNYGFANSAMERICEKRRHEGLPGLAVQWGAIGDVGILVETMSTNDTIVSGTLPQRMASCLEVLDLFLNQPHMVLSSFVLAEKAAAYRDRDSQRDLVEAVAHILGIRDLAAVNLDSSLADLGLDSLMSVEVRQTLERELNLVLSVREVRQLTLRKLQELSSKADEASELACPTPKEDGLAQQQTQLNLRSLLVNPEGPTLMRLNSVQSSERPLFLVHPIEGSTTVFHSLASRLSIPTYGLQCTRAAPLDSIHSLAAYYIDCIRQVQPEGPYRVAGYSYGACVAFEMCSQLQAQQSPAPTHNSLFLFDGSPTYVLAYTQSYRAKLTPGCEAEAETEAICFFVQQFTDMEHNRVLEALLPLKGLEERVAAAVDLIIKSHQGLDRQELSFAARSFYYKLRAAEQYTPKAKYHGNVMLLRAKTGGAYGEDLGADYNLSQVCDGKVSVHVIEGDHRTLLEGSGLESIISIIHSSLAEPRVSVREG

Structure (SMILES) | IC50 | other results
O=C(c1cnc(-c2cnc3ccccc3c2)cn1)N1CCN(C(=O)C2(O)CC2)CC1 [1-[(4-{[5-(quinolin-3-yl)pyrazin-2-yl]carbonyl}piperazin-1-yl)carbonyl]cyclopropan-1-ol] | – | IC50 [1]: 500 to 5000 nM
O=C(c1cnc(-c2ccc3ncccc3c2)cn1)N1CCN(C(=O)C2(O)CC2)CC1 [1-[(4-{[5-(quinolin-6-yl)pyrazin-2-yl]carbonyl}piperazin-1-yl)carbonyl]cyclopropan-1-ol] | – | IC50 [1]: 500 to 5000 nM
O=C(c1ncc(-c2ccc3ncccc3c2)cn1)N1CCN(C(=O)C2(O)CC2)CC1 [1-[(4-{[5-(quinolin-6-yl)pyrimidin-2-yl]carbonyl}piperazin-1-yl)carbonyl]cyclopropan-1-ol] | – | IC50 [1]: 500 to 5000 nM
COc1ccc2cc(-c3ccc(C(=O)N4CCN(C(=O)C5(O)CC5)CC4)cn3)ccc2n1 [1-[(4-{[6-(2-methoxyquinolin-6-yl)pyridin-3-yl]carbonyl}piperazin-1-yl)carbonyl]cyclopropan-1-ol] | – | IC50 [1]: 500 to 5000 nM
O=C(c1ccc(-c2ccc(Cl)cc2F)nc1)N1CCN(C(=O)C2(O)CC2)CC1 [1-[(4-{[6-(4-chloro-2-fluorophenyl)pyridin-3-yl]carbonyl}piperazin-1-yl)carbonyl]cyclopropan-1-ol] | – | IC50 [2]: ≥ 5000 nM
O=C(c1cn2cc(-c3ccc(F)cc3)ccc2n1)N1CCN(C(=O)C2(O)CC2)CC1 [1-[(4-{[6-(4-fluorophenyl)imidazo[1,2-a]pyridin-2-yl]carbonyl}piperazin-1-yl)carbonyl]cyclopropan-1-ol] | – | IC50 [2]: ≥ 5000 nM
O=C(c1ccc(-c2ccc3ncccc3c2)nc1)N1CCN(C(=O)C2(O)CC2)CC1 [1-[(4-{[6-(quinolin-6-yl)pyridin-3-yl]carbonyl}piperazin-1-yl)carbonyl]cyclopropan-1-ol] | – | IC50 [1]: 500 to 5000 nM
O=C(c1ccc(-c2cccc(NS(=O)(=O)CC3CCC3)c2)cc1)N1CCN(C(=O)C2(O)CC2)CC1 [1-cyclobutyl-N-(3-{4-[4-(1-hydroxycyclopropanecarbonyl)piperazine-1-carbonyl]phenyl}phenyl)methanesulfonamide] | < 500 nM | –
O=C(c1ccc(-c2cccc(NS(=O)(=O)CC3CC3)c2)cc1)N1CCN(C(=O)C2(O)CC2)CC1 [1-cyclopropyl-N-(3-{4-[4-(1-hydroxycyclopropanecarbonyl)piperazine-1-carbonyl]phenyl}phenyl)methanesulfonamide] | < 500 nM | –
Cn1cnc2cc(-c3ccc(C(=O)N4CCN(C(=O)C5CCO5)CC4)cc3)ccc21 (stereo not drawn) [1-methyl-5-{4-[4-(oxetane-2-carbonyl)piperazine-1-carbonyl]phenyl}-1H-1,3-benzodiazole] | < 500 nM | –
Cn1cnc2cc(-c3cc(F)c(C(=O)N4CCN(C(=O)C5(O)CC5)CC4)c(F)c3)ccc21 [1-{4-[2,6-difluoro-4-(1-methyl-1H-1,3-benzodiazol-5-yl)benzoyl]piperazine-1-carbonyl}cyclopropan-1-ol] | < 500 nM | –
Cn1ncc2ccc(-c3cc(F)c(C(=O)N4CCN(C(=O)C5(O)CC5)CC4)c(F)c3)cc21 [1-{4-[2,6-difluoro-4-(1-methyl-1H-indazol-6-yl)benzoyl]piperazine-1-carbonyl}cyclopropan-1-ol] | < 500 nM | –
Cn1cc2ccc(-c3cc(F)c(C(=O)N4CCN(C(=O)C5(N)CC5)CC4)c(F)c3)cc2n1 [1-{4-[2,6-difluoro-4-(2-methyl-2H-indazol-6-yl)benzoyl]piperazine-1-carbonyl}cyclopropan-1-amine] | < 500 nM | –
Cn1cc2ccc(-c3cc(F)c(C(=O)N4CCN(C(=O)C5(O)CC5)CC4)c(F)c3)cc2n1 [1-{4-[2,6-difluoro-4-(2-methyl-2H-indazol-6-yl)benzoyl]piperazine-1-carbonyl}cyclopropan-1-ol] | < 500 nM | –
Cn1ncc2ccc(-c3ccc(C(=O)N4CCN(C(=O)C5(O)CC5)CC4)c(Cl)c3)cc21 [1-{4-[2-chloro-4-(1-methyl-1H-indazol-6-yl)benzoyl]piperazine-1-carbonyl}cyclopropan-1-ol] | < 500 nM | –
Cn1cc2ccc(-c3ccc(C(=O)N4CCN(C(=O)C5(O)CC5)CC4)c(Cl)c3)cc2n1 [1-{4-[2-chloro-4-(2-methyl-2H-indazol-6-yl)benzoyl]piperazine-1-carbonyl}cyclopropan-1-ol] | < 500 nM | –
O=C(c1ccc(-c2nc3ccc(Cl)cc3o2)cc1Cl)N1CCN(C(=O)C2(O)CC2)CC1 [1-{4-[2-chloro-4-(6-chloro-1,3-benzoxazol-2-yl)benzoyl]piperazine-1-carbonyl}cyclopropan-1-ol] | < 500 nM | –
Cn1cnc2cc(-c3ccc(C(=O)N4CCN(C(=O)C5(N)CCC5)CC4)c(F)c3)ccc21 [1-{4-[2-fluoro-4-(1-methyl-1H-1,3-benzodiazol-5-yl)benzoyl]piperazine-1-carbonyl}cyclobutan-1-amine] | < 500 nM | –
Cn1ncc2ccc(-c3ccc(C(=O)N4CCN(C(=O)C5(N)CCC5)CC4)c(F)c3)cc21 [1-{4-[2-fluoro-4-(1-methyl-1H-indazol-6-yl)benzoyl]piperazine-1-carbonyl}cyclobutan-1-amine] | < 500 nM | –
Cn1ncc2ccc(-c3ccc(C(=O)N4CCN(C(=O)C5(N)CC5)CC4)c(F)c3)cc21 [1-{4-[2-fluoro-4-(1-methyl-1H-indazol-6-yl)benzoyl]piperazine-1-carbonyl}cyclopropan-1-amine] | < 500 nM | –
Cc1cc2ccccc2n1-c1ccc(C(=O)N2CCN(C(=O)C3(N)CC3)CC2)c(F)c1 [1-{4-[2-fluoro-4-(2-methyl-1H-indol-1-yl)benzoyl]piperazine-1-carbonyl}cyclopropan-1-amine] | < 500 nM | –
Cn1cc2ccc(-c3ccc(C(=O)N4CCN(C(=O)C5(N)CCC5)CC4)c(F)c3)cc2n1 [1-{4-[2-fluoro-4-(2-methyl-2H-indazol-6-yl)benzoyl]piperazine-1-carbonyl}cyclobutan-1-amine] | < 500 nM | –
O=C(c1ccc(N2CCc3cccnc3C2)cc1F)N1CCN(C(=O)C2(O)CC2)CC1 [1-{4-[2-fluoro-4-(5,6,7,8-tetrahydro-1,7-naphthyridin-7-yl)benzoyl]piperazine-1-carbonyl}cyclopropan-1-ol] | < 500 nM | –
Cn1cnc2cc(-c3ccc(C(=O)N4CCN(C(=O)C5(O)CC5)CC4)cc3Cl)ccc21 [1-{4-[3-chloro-4-(1-methyl-1H-1,3-benzodiazol-5-yl)benzoyl]piperazine-1-carbonyl}cyclopropan-1-ol] | < 500 nM | –
Cn1ncc2ccc(-c3ccc(C(=O)N4CCN(C(=O)C5(O)CC5)CC4)cc3Cl)cc21 [1-{4-[3-chloro-4-(1-methyl-1H-indazol-6-yl)benzoyl]piperazine-1-carbonyl}cyclopropan-1-ol] | < 500 nM | –
Cn1cc2ccc(-c3ccc(C(=O)N4CCN(C(=O)C5(O)CC5)CC4)cc3Cl)cc2n1 [1-{4-[3-chloro-4-(2-methyl-2H-indazol-6-yl)benzoyl]piperazine-1-carbonyl}cyclopropan-1-ol] | < 500 nM | –
O=C(c1ccc(-c2ccc(Cl)cc2F)c(Cl)c1)N1CCN(C(=O)C2(O)CC2)CC1 [1-{4-[3-chloro-4-(4-chloro-2-fluorophenyl)benzoyl]piperazine-1-carbonyl}cyclopropan-1-ol] | < 500 nM | –
O=C(c1ccc(-c2cc(Cl)ccc2F)c(Cl)c1)N1CCN(C(=O)C2(O)CC2)CC1 [1-{4-[3-chloro-4-(5-chloro-2-fluorophenyl)benzoyl]piperazine-1-carbonyl}cyclopropan-1-ol] | < 500 nM | –

Further lines, with some results ahead:

IC50 | Structure (SMILES) | other results
< 500 nM | O=C(c1ccc(-c2cc(Cl)ccc2F)cc1Cl)N1CCN(C(=O)C2(O)CC2)CC1 [1-{4-[2-chloro-4-(5-chloro-2-fluorophenyl)benzoyl]piperazine-1-carbonyl}cyclopropan-1-ol] | –
< 500 nM | Cn1cnc2cc(-c3ccc(C(=O)N4CCN(C(=O)C5(N)CC5)CC4)c(F)c3)ccc21 [1-{4-[2-fluoro-4-(1-methyl-1H-1,3-benzodiazol-5-yl)benzoyl]piperazine-1-carbonyl}cyclopropan-1-amine] | –
< 500 nM | Cn1cnc2cc(-c3ccc(C(=O)N4CCN(C(=O)C5(O)CC5)CC4)c(F)c3)ccc21 [1-{4-[2-fluoro-4-(1-methyl-1H-1,3-benzodiazol-5-yl)benzoyl]piperazine-1-carbonyl}cyclopropan-1-ol] | –
< 500 nM | Cn1ncc2ccc(-c3ccc(C(=O)N4CCN(C(=O)C5(O)CC5)CC4)c(F)c3)cc21 [1-{4-[2-fluoro-4-(1-methyl-1H-indazol-6-yl)benzoyl]piperazine-1-carbonyl}cyclopropan-1-ol] | –
< 500 nM | Cc1cc2ccccc2n1-c1ccc(C(=O)N2CCN(C(=O)C3(O)CC3)CC2)c(F)c1 [1-{4-[2-fluoro-4-(2-methyl-1H-indol-1-yl)benzoyl]piperazine-1-carbonyl}cyclopropan-1-ol] | –
< 500 nM | Cn1cc2ccc(-c3ccc(C(=O)N4CCN(C(=O)C5(N)CC5)CC4)c(F)c3)cc2n1 [1-{4-[2-fluoro-4-(2-methyl-2H-indazol-6-yl)benzoyl]piperazine-1-carbonyl}cyclopropan-1-amine] | –
< 500 nM | Cc1n[nH]c2c(-c3ccc(C(=O)N4CCN(C(=O)C5(N)CC5)CC4)c(F)c3)cccc12 [1-{4-[2-fluoro-4-(3-methyl-1H-indazol-7-yl)benzoyl]piperazine-1-carbonyl}cyclopropan-1-amine] | –
< 500 nM | Cc1n[nH]c2c(-c3ccc(C(=O)N4CCN(C(=O)C5(O)CC5)CC4)c(F)c3)cccc12 [1-{4-[2-fluoro-4-(3-methyl-1H-indazol-7-yl)benzoyl]piperazine-1-carbonyl}cyclopropan-1-ol] | –
< 500 nM | O=C(c1ccc(-c2nc3ccc(F)cc3o2)cc1F)N1CCN(C(=O)C2(O)CC2)CC1 [1-{4-[2-fluoro-4-(6-fluoro-1,3-benzoxazol-2-yl)benzoyl]piperazine-1-carbonyl}cyclopropan-1-ol] | –
< 500 nM | O=C(c1ccc(-c2n[nH]c3c(F)cccc23)cc1F)N1CCN(C(=O)C2(O)CC2)CC1 [1-{4-[2-fluoro-4-(7-fluoro-1H-indazol-3-yl)benzoyl]piperazine-1-carbonyl}cyclopropan-1-ol] | –
< 500 nM | Cc1nn(C)c2ccc(-c3ccc(C(=O)N4CCN(C(=O)C5(O)CC5)CC4)cc3Cl)cc12 [1-{4-[3-chloro-4-(1,3-dimethyl-1H-indazol-5-yl)benzoyl]piperazine-1-carbonyl}cyclopropan-1-ol] | –
